Laboratory results from ChEMBL document CHEMBL3734649, “H2O-mediated isatin spiro-epoxide ring opening with NaCN: Synthesis of novel 3-tetrazolylmethyl-3-hydroxy-oxindole hybrids and their anticancer evaluation” (Eur J Med Chem, 2015).

Key:
[1] = Anticancer activity against human BT549 cells after 48 hrs by MTT assay; type: functional, cell-based; conditions: BT-549, 48 h
MDA-MB-231 = assay: Anticancer activity against human MDA-MB-231 cells after 48 hrs by MTT assay; type: functional, cell-based; conditions: MDA-MB-231, 48 h
[2] = Anticancer activity against human PC3 cells after 48 hrs by MTT assay; type: functional, cell-based; conditions: PC-3, 48 h
[3] = Anticancer activity against human DU145 cells after 48 hrs by MTT assay; type: functional, cell-based; conditions: DU-145, 48 h
[4] = Anticancer activity against human PA1 cells after 48 hrs by MTT assay; type: functional, cell-based; conditions: PA-1, 48 h
[5] = Cytotoxicity against human RWPE1 cells after 48 hrs by MTT assay; type: cell-based; conditions: RWPE-1, 48 h
[6] = Selectivity index, ratio of IC50 for human RWPE1 cells to IC50 for human DU145 cells; type: functional

Q: For CCN1C(=O)C(O)(Cc2nnn[nH]2)c2cc(Cl)ccc21 (stereo not drawn), which IC50 [1] is on record?
A: Its IC50 is 85.4 µM.

Q: And the IC50 (MDA-MB-231)?
A: Its IC50 is 84.9 µM.

Q: And the IC50 [2]?
A: Its IC50 is 79.3 µM.

Q: And the IC50 [3]?
A: The IC50 was 21.5 µM.

Q: And the IC50 [4]?
A: The IC50 was 49.5 µM.

Q: Which results are given for O=c1[nH]cc(F)c(=O)[nH]1 [FLUOROURACIL]?
A: IC50 [1]: 19.8 µM; IC50 (MDA-MB-231): 45.4 µM; IC50 [2]: 68.3 µM; IC50 [3]: 39.2 µM; IC50 [4]: 7.59 µM

Q: With CN1C(=O)C(O)(Cc2nnn[nH]2)c2cc(F)ccc21 (stereo not drawn) as the compound, how does the IC50 [1] read?
A: Its IC50 is > 100 µM.

Q: And the IC50 (MDA-MB-231)?
A: The IC50 was > 100 µM.

Q: What about the IC50 [2] of the same compound?
A: The IC50 was 38.2 µM.

Q: And the IC50 [3]?
A: The IC50 was > 100 µM.

Q: And the IC50 [4]?
A: The IC50 was > 100 µM.

Q: For O=C1N(Cc2ccc(Br)cc2)c2ccc(F)cc2C1(O)Cc1nnn[nH]1 (stereo not drawn), which IC50 [1] is on record?
A: Its IC50 is > 100 µM.

Q: What about the IC50 (MDA-MB-231) of the same compound?
A: The IC50 was > 100 µM.

Q: What about the IC50 [2] of the same compound?
A: Its IC50 is > 100 µM.

Q: What about the IC50 [3] of the same compound?
A: The IC50 was 14.4 µM.

Q: What about the IC50 [4] of the same compound?
A: Its IC50 is > 100 µM.

Q: What about the IC50 [5] of the same compound?
A: The IC50 was > 100 µM.

Q: Which IC50 [1] does the source give for O=C1N(Cc2ccccc2)c2ccc(Br)cc2C1(O)Cc1nnn[nH]1 (stereo not drawn) here?
A: The IC50 was 39.6 µM.

Q: And the IC50 (MDA-MB-231)?
A: Its IC50 is 96.1 µM.

Q: What about the IC50 [2] of the same compound?
A: Its IC50 is 75.8 µM.

Q: What about the IC50 [3] of the same compound?
A: Its IC50 is 46.2 µM.

Q: What about the IC50 [4] of the same compound?
A: Its IC50 is 74.4 µM.

Q: With O=C1N(Cc2ccc(Br)cc2)c2ccc(Br)cc2C1(O)Cc1nnn[nH]1 (stereo not drawn) as the compound, how does the IC50 [1] read?
A: The IC50 was 88.8 µM.

Q: And the IC50 (MDA-MB-231)?
A: Its IC50 is 65.4 µM.

Q: What about the IC50 [2] of the same compound?
A: The IC50 was > 100 µM.

Q: And the IC50 [3]?
A: Its IC50 is 59.6 µM.

Q: And the IC50 [4]?
A: The IC50 was > 100 µM.

Q: For O=C1N(Cc2ccccc2)c2ccc(F)cc2C1(O)Cc1nnn[nH]1 (stereo not drawn), which IC50 [1] is on record?
A: The IC50 was 78.7 µM.

Q: And the IC50 (MDA-MB-231)?
A: The IC50 was 27.2 µM.

Q: What about the IC50 [2] of the same compound?
A: The IC50 was > 100 µM.

Q: And the IC50 [3]?
A: The IC50 was > 100 µM.

Q: And the IC50 [4]?
A: Its IC50 is > 100 µM.

Q: With CCN1C(=O)C(O)(Cc2nnn[nH]2)c2ccccc21 (stereo not drawn) as the compound, how does the IC50 [1] read?
A: The IC50 was > 100 µM.

Q: What about the IC50 (MDA-MB-231) of the same compound?
A: Its IC50 is > 100 µM.

Q: What about the IC50 [2] of the same compound?
A: The IC50 was > 100 µM.

Q: And the IC50 [3]?
A: The IC50 was > 100 µM.

Q: And the IC50 [4]?
A: Its IC50 is > 100 µM.

Q: What does the source list for Cc1ccc2c(c1)C(O)(Cc1nnn[nH]1)C(=O)N2C (stereo not drawn)?
A: IC50 [1]: > 100 µM; IC50 (MDA-MB-231): > 100 µM; IC50 [2]: > 100 µM; IC50 [3]: > 100 µM; IC50 [4]: > 100 µM

Q: Which IC50 [1] does the source give for O=C1N(Cc2ccc(Br)cc2)c2ccccc2C1(O)Cc1nnn[nH]1 (stereo not drawn) here?
A: The IC50 was 73.4 µM.

Q: And the IC50 (MDA-MB-231)?
A: The IC50 was > 100 µM.

Q: What about the IC50 [2] of the same compound?
A: The IC50 was 10.1 µM.

Q: What about the IC50 [3] of the same compound?
A: Its IC50 is 7.01 µM.

Q: What about the IC50 [4] of the same compound?
A: The IC50 was 38.9 µM.

Q: And the IC50 [5]?
A: The IC50 was 76 µM.

Q: What about the “Ratio IC50” value [6] of the same compound?
A: The value was 10.
